Assay results published in US8969419B2, “Animal feed compositions and feeding methods” (priority 2009, dated 2015).

System: ruminal microbiota
Assay: Analysis of ruminal samples from cattle fed hop beta acids or Rumensin
Assay type: in vivo
Settings: Rumensin 300 mg/day; for Lactate Concentration, % differ from Control / Isobutyrate Concentration, % differ from Control / Isovalerate Concentration, % differ from Control / Valerate Concentration, % differ from Control / Butyrate Concentration, % differ from Control / Propionate Concentration, % differ from Control / Acetate Concentration, % differ from Control / Total VFA Concentration, % differ from Control: rumen fluid; for Lactate Concentration, % differ from Control / Isobutyrate Concentration, % differ from Control / Isovalerate Concentration, % differ from Control / Valerate Concentration, % differ from Control / Butyrate Concentration, % differ from Control / Propionate Concentration, % differ from Control / Acetate Concentration, % differ from Control / Total VFA Concentration, % differ from Control / Ruminal Ammonia Concentration, % differ from Control / Ruminal Acetate:Propionate Ratio, % differ from Control: β-acids averaged over five levels; for Ruminal pH, % differ from Control: β-acids averaged over five levels (10-300 mg/day)
Protocol: Background: Cattle were fed concentrate-based diets and were administered beta acids of hops (0, 10, 80, 160, 240, or 300 mg/day) or Rumensin (300 mg/day) to determine effects of the additives on ruminal microbiota. Rumen samples were periodically taken and pH, acetate, propionate, butyrate isobutyrate, valerate isovalerate, and total volatile fatty acid (VFA) concentrations were measured. Materials and Methods: A 10% beta acids solution (standard aqueous alkaline solution of beta acids) was subjected to dilution. Dilutions of the 10% beta acids solution were prepared (with water and KOH additions) such that solutions were prepared that contained the proper amount of beta acids (per ml) to provide proper cattle dose in 30 ml total volume (e.g. a solution was prepared that had 10 mg/30 ml (pH of 10.5) and was used to treat the 10 mg/steer/day group; another solution was prepared that had 80 mg/30 ml (pH 10.5) and was used to treat the 80 mg/steer/day group). Each animal was treated with it appropriate 30 ml of solution, once per day. A subset of ruminal fluid samples representing each of the seven treatment groups (control, five levels of beta acids and Rumensin). The beta acid levels were 10, 80 and 160, 240 and 300 mg/animal daily. The rumen fluid sampling was performed at prescribed intervals following feeding. Rumen samples were analyzed using standard accepted methodologies, and concentrations of parameters of interest determined. Results: Described in Tables I through XI are the averaged results from the 24 hour feeding period (i.e. average of analysis results for each parameter, complied from samples taken and analyzed over the course of the 24 hour feeding period) for: the control animals, the animals receiving beta acids treatments (average value at all five levels), and Rumensin treated animals. The Tables provide the maximum, minimum and average values observed. The beta acids (β-acids) and Rumensin values are reported as a percentage of the control. Positive percentage values mean that the treatment (beta acids or Rumensin) exceeded the control by the specified amount (negative values less than control by specified amount.

CCC1(C2OC(C3OC(O)(CO)C(C)CC3C)CC2C)CCC(C2(C)CCC3(CC(O)C(C)C(C(C)C(OC)C(C)C(=O)O)O3)O2)O1 (stereo not drawn) [Rumensin, 4-[2-[5-ethyl-5-[5-[6-hydroxy-6-(hydroxymethyl)-3,5-dimethyl-oxan-2-yl]-3-methyl-oxolan-2-yl]oxolan-2-yl]-9-hydroxy-2,8-dimethyl-1,6-dioxaspiro[4.5]dec-7-yl]-3-methoxy-2-methyl-pentanoic acid]
Lactate Concentration, % differ from Control (Ave over 24 hrs of feeding, control 0.6 mM): 10.2%
Isobutyrate Concentration, % differ from Control (Ave over 24 hrs of feeding, control 0.79 mM): 6.84%
Isovalerate Concentration, % differ from Control (Ave over 24 hrs of feeding, control 1.25 mM): 33.4%
Valerate Concentration, % differ from Control (Ave over 24 hrs of feeding, control 3.06 mM): 31.7%
Butyrate Concentration, % differ from Control (Ave over 24 hrs of feeding, control 9.3 mM): 0.6%
Propionate Concentration, % differ from Control (Ave over 24 hrs of feeding, control 29 mM): 27.9%
Acetate Concentration, % differ from Control (Ave over 24 hrs of feeding, control 38 mM): 9%
Total VFA Concentration, % differ from Control (Ave over 24 hrs of feeding, control 82 mM): 14.9%
Ruminal Ammonia Concentration, % differ from Control (Ave over 24 hrs of feeding, control 3.4 mM): −54.1%
Ruminal Acetate:Propionate Ratio, % differ from Control (Ave over 24 hrs of feeding, control A:P ratio 1.50): −20.4%
Ruminal pH, % differ from Control (Ave value over 24 hrs of feeding, control pH 5.69): −4.45%
Isobutyrate Concentration, % differ from Control (Max over 24 hrs of feeding, control 1.00 mM): 5.00%
Isovalerate Concentration, % differ from Control (Max over 24 hrs of feeding, control 1.81 mM): 26.0%
Lactate Concentration, % differ from Control (Max over 24 hrs of feeding, control 3.0 mM): 66.7%
Valerate Concentration, % differ from Control (Max over 24 hrs of feeding, control 3.80 mM): 39.5%
Butyrate Concentration, % differ from Control (Max over 24 hrs of feeding, control 12.6 mM): −8.7%
Propionate Concentration, % differ from Control (Max over 24 hrs of feeding, control 40 mM): 12.5%
Acetate Concentration, % differ from Control (Max over 24 hrs of feeding, control 49 mM): −2%
Total VFA Concentration, % differ from Control (Max over 24 hrs of feeding, control 107 mM): 0.9%
Ruminal Ammonia Concentration, % differ from Control (Max over 24 hrs of feeding, control 7.2 mM): −41.7%
Ruminal Acetate:Propionate Ratio, % differ from Control (Max over 24 hrs of feeding, control A:P ratio 1.73): 4.0%
Ruminal pH, % differ from Control (Max value over 24 hrs of feeding, control pH 6.60): −5.45%
Lactate Concentration, % differ from Control (Min over 24 hrs of feeding, control 0.2 mM): 0.0%
Isobutyrate Concentration, % differ from Control (Min over 24 hrs of feeding, control 0.57 mM): 17.54%
Isovalerate Concentration, % differ from Control (Min over 24 hrs of feeding, control 0.88 mM): 50.0%
Valerate Concentration, % differ from Control (Min over 24 hrs of feeding, control 1.9 mM): 36.8%
Butyrate Concentration, % differ from Control (Min over 24 hrs of feeding, control 6.6 mM): −75.8%
Propionate Concentration, % differ from Control (Min over 24 hrs of feeding, control 18 mM): 22.2%
Acetate Concentration, % differ from Control (Min over 24 hrs of feeding, control 28 mM): 11%
Total VFA Concentration, % differ from Control (Min over 24 hrs of feeding, control 57 mM): 14.0%
Ruminal Ammonia Concentration, % differ from Control (Min over 24 hrs of feeding, control 0.7 mM): −54.3%
Ruminal Acetate:Propionate Ratio, % differ from Control (Min over 24 hrs of feeding, control A:P ratio 1.30): −25.4%
Ruminal pH, % differ from Control (Min value over 24 hrs of feeding, control pH 5.18): −2.70%
